# PubChem BioAssay AID493111 (The Scripps Research Institute Molecular Screening Center, 2011)
# The source made the active and inactive calls. No rule for the calls is given here.
# How the values were obtained:
# Test in all cases: LYPLA1/LYPLA2 inhibition and hydrolase selectivity, late-stage follow-up, selectivity assay for LYPLA1/LYPLA2 dual inhibitor project, biochemical, gel-based ABPP, fluorescence, proteome (AID 493111)
# Conditions in all cases: fluorophosphonate-rhodamine competition, at 1.5 µM (top of the series)
# ABHD11 = test system: ABHD11
# APEH = test system: APEH
# ESD = test system: ESD
# LYPLA1 = test system: LYPLA1
# LYPLA2 = test system: LYPLA2
SMILES,inhibition (ABHD11),inhibition (APEH),inhibition (ESD),inhibition (LYPLA1),inhibition (LYPLA2)
O=C(N1CCOCC1)n1nnc2ccccc21,100%,100% (inactive),50% (inactive),50% (inactive),0% (inactive)
O=C(N1CCC(Cc2ccccc2)CC1)n1ncc(C(O)(c2ccccc2)c2ccccc2)n1,100%,0% (inactive),50% (inactive),100%,100%
O=C(N1CCOCC1)n1ncc(-c2cc(F)cc(F)c2)n1,100%,100%,75%,50% (inactive),0% (inactive)
O=C(N1CCOCC1)n1ncc(-c2ccc(OC(F)(F)F)cc2)n1,100%,50% (inactive),75% (inactive),0% (inactive),0% (inactive)
O=C(N1CCCCC1)n1ccnn1,100%,0% (inactive),0% (inactive),75% (inactive),0% (inactive)
COC1CCN(C(=O)n2ncc(C(O)(c3ccccc3)c3ccccc3)n2)CC1,100%,0% (inactive),100% (inactive),100%,100%
O=C(N1CCCCC1)n1ncc(-c2ccc(Oc3ccccc3)cc2)n1,100%,0% (inactive),100%,100%,0% (inactive)
O=C(N1CCC(C(O)(c2ccccc2)c2ccccc2)CC1)n1ncc(C(O)(c2ccccc2)c2ccccc2)n1,100%,0% (inactive),0% (inactive),100%,100%
O=C(N1CCOCC1)n1ccnn1,100%,0% (inactive),0% (inactive),0% (inactive),0% (inactive)
O=C(N1CCCC(Cc2ccccc2)C1)n1cc(C(O)(c2ccccc2)c2ccccc2)nn1 (stereo not given),100%,0% (inactive),50% (inactive),100%,100%
CCC1CCCCN1C(=O)n1ncc(C(O)(c2ccccc2)c2ccccc2)n1 (stereo not given),100%,50% (inactive),0% (inactive),0% (inactive),0% (inactive)
O=C(N1CCOCC1)n1ncc(-c2ccccc2)n1,100%,100%,75%,0% (inactive),0% (inactive)
O=C(N1CCOCC1)n1ncc(C(O)(c2ccccc2)c2ccccc2)n1,100%,50% (inactive),50% (inactive),100%,50% (inactive)

# Continued, values first:
inhibition (ABHD11),inhibition (APEH),inhibition (ESD),inhibition (LYPLA1),inhibition (LYPLA2),SMILES
100%,75% (inactive),100%,100% (inactive),50% (inactive),COc1ccc2cc(-c3cnn(C(=O)N4CCCCC4)n3)ccc2c1
100%,0% (inactive),50% (inactive),100%,100%,CC(C)(C)C1CCN(C(=O)n2ncc(C(O)(c3ccccc3)c3ccccc3)n2)CC1
100%,50% (inactive),100%,100%,100%,O=C(N1CCCCC1)n1ncc(C(O)(c2ccccc2)c2ccccc2)n1
100%,100%,75% (inactive),100%,100%,CC1CCN(C(=O)n2ncc(C(O)(c3ccccc3)c3ccccc3)n2)CC1
100%,0% (inactive),75%,100%,75%,O=C(N1CCCCC1)n1ncc(C(O)c2ccccc2)n1 (stereo not given)
100%,0% (inactive),50% (inactive),100%,100%,CC(C)(C)C1CCN(C(=O)n2ncc(C3(O)CCCCC3)n2)CC1
100% (inactive),0% (inactive),0% (inactive),100%,100%,CC(C)(O)c1cnn(C(=O)N2CCC(C(C)(C)C)CC2)n1
